From US20180104198A1, “Pharmaceutical Composition, Methods for Treating and Uses Thereof” (Boehringer Ingelheim International GmbH, priority 2016, published 2018)
Blank lines part the entries; values can stand above or below the molecule they belong to.

Experiments:
[1] = test system: patients with type 2 diabetes mellitus; conditions: patients with type 2 diabetes mellitus at high risk for cardiovascular events; Zinman et al. 2015; cited from earlier work
SGLT2 versus SGLT1 = conditions: Grempler et al. 2012; cited from earlier work
human diamine oxidase = biological target: T1, human diamine oxidase (Homo sapiens, UniProt P19801); experiment: inhibition of human diamine oxidase; conditions: qualitative statement
T1 sequence (P19801 20-751): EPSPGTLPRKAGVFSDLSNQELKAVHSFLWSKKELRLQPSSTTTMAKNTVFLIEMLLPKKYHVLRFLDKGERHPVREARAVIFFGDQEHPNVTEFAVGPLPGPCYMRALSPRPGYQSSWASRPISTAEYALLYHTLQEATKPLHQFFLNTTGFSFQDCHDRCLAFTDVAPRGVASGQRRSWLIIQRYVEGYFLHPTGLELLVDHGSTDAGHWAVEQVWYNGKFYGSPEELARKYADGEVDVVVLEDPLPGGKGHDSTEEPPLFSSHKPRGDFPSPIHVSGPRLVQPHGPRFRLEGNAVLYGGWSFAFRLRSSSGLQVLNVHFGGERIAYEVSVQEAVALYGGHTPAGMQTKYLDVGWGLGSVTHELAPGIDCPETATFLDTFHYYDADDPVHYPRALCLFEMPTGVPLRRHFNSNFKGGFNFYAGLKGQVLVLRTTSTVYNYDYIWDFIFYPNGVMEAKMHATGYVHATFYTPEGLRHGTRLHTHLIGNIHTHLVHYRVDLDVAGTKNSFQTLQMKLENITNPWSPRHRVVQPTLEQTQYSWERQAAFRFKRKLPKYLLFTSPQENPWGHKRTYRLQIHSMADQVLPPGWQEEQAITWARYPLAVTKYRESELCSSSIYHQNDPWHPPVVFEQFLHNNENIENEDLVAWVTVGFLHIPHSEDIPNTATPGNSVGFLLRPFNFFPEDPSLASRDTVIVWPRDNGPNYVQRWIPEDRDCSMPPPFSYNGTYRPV

HbA1c = conditions: metformin on its own, in the diabetic; cited from earlier work

SMILES: OC[C@H]1O[C@@H](c2ccc(Cl)c(Cc3ccc(O[C@H]4CCOC4)cc3)c2)[C@H](O)[C@@H](O)[C@@H]1O [empagliflozin]
rates of the primary composite cardiovascular outcome and of death from any cause [1]: significantly lower rates
selectivity SGLT2 versus SGLT1 (SGLT2 versus SGLT1): high selectivity

inhibitory activity against human diamine oxidase (human diamine oxidase): low inhibitory activity
SMILES: CC(C)(C)NC(=O)c1ccc(OC/C(=C/F)CN)cc1 [Compound 23, (E)-4-(2-(Aminomethyl)-3-fluoroallyloxy)-N-tert-butylbenzamide]

SMILES: CN(C)C(=N)N=C(N)N [metformin]
average improvement in the HbA1c value (HbA1c): 1.0-1.5%
